For 17 compounds, IC50 results are on record in US12060349B2, “Glucosylceramide synthase inhibitors” (Genzyme Corporation, priority 2012, dated 2024).

Assay [1] deals with T1, glucosylceramide synthase (Homo sapiens, UniProt Q16739).
T1 construct: Microsomes were isolated from A375 human melanoma cells; endogenous in cells; host or cells: A375 human melanoma cells (microsomal fraction, 100,000 g pellet)
T1 sequence (Q16739 1-394): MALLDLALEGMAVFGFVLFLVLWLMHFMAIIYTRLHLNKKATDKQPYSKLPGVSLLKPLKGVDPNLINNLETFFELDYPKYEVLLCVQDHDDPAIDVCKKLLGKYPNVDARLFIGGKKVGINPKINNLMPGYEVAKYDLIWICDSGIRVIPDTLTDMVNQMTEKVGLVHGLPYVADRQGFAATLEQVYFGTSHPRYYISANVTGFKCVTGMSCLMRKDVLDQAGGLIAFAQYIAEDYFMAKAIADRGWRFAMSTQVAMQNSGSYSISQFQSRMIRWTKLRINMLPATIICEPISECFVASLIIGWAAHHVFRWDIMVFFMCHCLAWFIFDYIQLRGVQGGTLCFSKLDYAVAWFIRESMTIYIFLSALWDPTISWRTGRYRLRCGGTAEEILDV
The assay can be described thus: microsomal assay measuring conversion of ceramide to glucosylceramide by HPLC (GCS IC50). It counts as biochemical. The following applies: concentration causing 50% inhibition of glucosylceramide synthase activity. The procedure, abridged: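 Microsomal preparation assayed for glucosylceramide synthase by direct HPLC measurement of ceramide conversion to glucosylceramide. GCS IC50 is the compound concentration giving 50% inhibition of enzyme activity.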

Assay [2] relates to GM3 expression on the cell surface, B16 mouse melanoma cells. The assay can be described thus: cell based phenotypic assay, cell surface GM3 by antibody mediated immunofluorescence, B16 (GM3 B16 IC50). As to conditions: Mus musculus, B16 mouse melanoma cells; 50% inhibition of GM3 expression on the cell surface; read-out: GM3 B16 IC50. The procedure, abridged:
(§1)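 B16 mouse and C32 human melanoma cells; cell-surface GM3 measured by antibody-mediated immunofluorescence, giving IC50.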

Assay [3] has as its system GM3 expression on the cell surface, C32 human melanoma cells. As to the kind of experiment: cell based phenotypic assay, cell surface GM3 by antibody mediated immunofluorescence, C32 (GM3 C32 IC50). The following applies: Homo sapiens, C32 human melanoma cells; 50% inhibition of GM3 expression on the cell surface; read-out: GM3 C32 IC50. In a few lines:
as §1

A further assay deals with B16 mouse melanoma cells. The assay can be described thus: cell viability in the B16 cell-based assay (Viability, B16 IC50). As to conditions: Mus musculus, B16, B16 cells; concentration causing 50% cell death; values greater than 10 represent a lack of cell death; read-out: Viability, B16 IC50. In a few lines: (§2)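 Two melanoma lines, mouse B16 and human C32, were treated and surface GM3 quantified by antibody immunofluorescence for IC50. A parallel viability readout gives the concentration killing 50% of cells, with values over 10 indicating no cell death.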

Another assay concerns C32 human melanoma cells. As to the kind of experiment: cell viability in the C32 cell-based assay (Viability, C32 IC50). The following applies: Homo sapiens, C32, C32 cells; concentration causing 50% cell death; values greater than 10 represent a lack of cell death; read-out: Viability, C32 IC50. In a few lines:
as §2

Each structure is given as a SMILES string. A value given as a limit tells only on which side of the number the result lay.

As to `COCCOCc1ccc(-c2ccnc(N3CCC(F)(C(=O)NC4(C)CN5CCC4CC5)CC3)n2)cc1` (stereo not shown) [Example 83, 4-Fluoro-1-(4-(4-((2-methoxyethoxy)methyl)phenyl)pyrimidin-2-yl)-N-(3-methylquinuclidin-3-yl)piperidine-4-carboxamide], the IC50 in assay [1] was 13.4 nM; in assay [2] it was 119 nM; in assay [3], 1.13 nM; in the assay with B16 mouse melanoma cells, not below 10000 nM; in the assay with C32 human melanoma cells, 1000 nM.
On the same counts, the results for `COCCOCc1ccc(-c2ccnc(N3CCC(F)(C(=O)N[C@]4(C)CN5CCC4CC5)CC3)n2)cc1` [Example 84, (S)-4-Fluoro-1-(4-(4-((2-methoxyethoxy)methyl)phenyl)pyrimidin-2-yl)-N-(3-methylquinuclidin-3-yl)piperidine-4-carboxamide] are 5.35 nM, 90.3 nM, 0.621 nM, not below 10000 nM and 1000 nM.
Consider `COCCOc1ccc(-c2ccnc(N3CCC(F)(C(=O)NC4(C)CN5CCC4CC5)CC3)n2)cc1` (stereo not shown) [Example 85, 4-Fluoro-1-(4-(4-(2-methoxyethoxy)phenyl)pyrimidin-2-yl)-N-(3-methylquinuclidin-3-yl)piperidine-4-carboxamide], for which the IC50 in assay [1] was 10.5 nM; in assay [2] it was 79.9 nM; in assay [3], 0.389 nM; in the assay with B16 mouse melanoma cells, not below 10000 nM; with C32 human melanoma cells it was 316 nM.
On the same counts, the results for `COCCOc1ccc(-c2ccnc(N3CCC(F)(C(=O)N[C@]4(C)CN5CCC4CC5)CC3)n2)cc1` [Example 86, (S)-4-Fluoro-1-(4-(4-(2-methoxyethoxy)phenyl)pyrimidin-2-yl)-N-(3-methylquinuclidin-3-yl)piperidine-4-carboxamide] are 3.46 nM, 48 nM, 0.241 nM, not below 10000 nM and 1000 nM.
On the same counts, the results for `O=C(NC1CN2CCC1CC2)C1(F)CCN(c2nccc(-c3ccc(OCCF)cc3)n2)CC1` (stereo not shown) [Example 87, 4-Fluoro-1-(4-(4-(2-fluoroethoxy)phenyl)pyrimidin-2-yl)-N-(quinuclidin-3-yl)piperidine-4-carboxamide] are 1.91 nM, 64.3 nM, 0.177 nM, 8910 nM and 215 nM.
For the compound `O=C(N[C@@H]1CN2CCC1CC2)C1(F)CCN(c2nccc(-c3ccc(OCCF)cc3)n2)CC1` [Example 88, (S)-4-Fluoro-1-(4-(4-(2-fluoroethoxy)phenyl)pyrimidin-2-yl)-N-(quinuclidin-3-yl)piperidine-4-carboxamide], the IC50 was 1.68 nM in assay [1]; 56.8 nM in assay [2]; 0.252 nM in assay [3]; not below 10000 nM in the assay on B16 mouse melanoma cells; 1000 nM with C32 human melanoma cells.
Turning to `COCCOCc1ccc(-c2ccnc(N3CCC(F)(C(=O)NC4(C)CCN5CCC4CC5)CC3)n2)cc1` (stereo not shown) [Example 89, 4-Fluoro-1-(4-(4-((2-methoxyethoxy)methyl)phenyl)pyrimidin-2-yl)-N-(4-methyl-1-azabicyclo[3.2.2]nonan-4-yl)piperidine-4-carboxamide], the concentration for half-maximal inhibition (IC50) in assay [1] was determined as 8.23 nM; in assay [2], 109 nM; in assay [3] it was 1.17 nM; in the assay on B16 mouse melanoma cells, 9470 nM; in the assay with C32 human melanoma cells, 316 nM.
For the compound `CC1(NC(=O)C2(F)CCN(c3nccc(-c4ccc(OCCF)cc4)n3)CC2)CCN2CCC1CC2` (stereo not shown) [Example 90, 4-Fluoro-1-(4-(4-(2-fluoroethoxy)phenyl)pyrimidin-2-yl)-N-(4-methyl-1-azabicyclo[3.2.2]nonan-4-yl)piperidine-4-carboxamide], the IC50 was 2.26 nM in assay [1]; 13.4 nM in assay [2]; 0.0953 nM in assay [3]; 3060 nM in the assay on B16 mouse melanoma cells; 215 nM with C32 human melanoma cells.
On to `COCCOc1ccc(-c2nc(N3CCC(F)(C(=O)NC4(C)CCN5CCC4CC5)CC3)ncc2F)cc1` (stereo not shown) [Example 91, 4-Fluoro-1-(5-fluoro-4-(4-(2-methoxyethoxy)phenyl)pyrimidin-2-yl)-N-(4-methyl-1-azabicyclo[3.2.2]nonan-4-yl)piperidine-4-carboxamide], for which the IC50 in assay [1] is 2.04 nM; in assay [2] it was 71.4 nM; in assay [3], 0.117 nM; in the assay with B16 mouse melanoma cells, 2660 nM; in the assay on C32 human melanoma cells it was 100 nM.
Take `CC1(NC(=O)C2(F)CCN(c3nccc(-c4ccc(OCCF)cc4)n3)CC2)CN2CCC1CC2` (stereo not shown) [Example 92, 4-Fluoro-1-(4-(4-(2-fluoroethoxy)phenyl)pyrimidin-2-yl)-N-(3-methylquinuclidin-3-yl)piperidine-4-carboxamide]: the half-maximal inhibitory concentration (IC50) in assay [1] was found to be 1.46 nM; in assay [2], 29 nM; in assay [3], 0.106 nM; in the assay on B16 mouse melanoma cells, 6830 nM; in the assay on C32 human melanoma cells, 100 nM.
As for `COCCOc1ccc(-c2ccnc(N3CCC(F)(C(=O)NC4(C)CCN5CCC4CC5)CC3)n2)cc1` (stereo not shown) [Example 93, 4-Fluoro-1-(4-(4-(2-methoxyethoxy)phenyl)pyrimidin-2-yl)-N-(4-methyl-1-azabicyclo[3.2.2]nonan-4-yl)piperidine-4-carboxamide], the IC50 was determined as 3.96 nM in assay [1]; 43.9 nM in assay [2]; 0.261 nM in assay [3]; 3960 nM in the assay with B16 mouse melanoma cells; 316 nM with C32 human melanoma cells.
`CC1(NC(=O)C2(F)CCN(c3nccc(-c4ccc(F)cc4)n3)CC2)CCN2CCC1CC2` (stereo not shown) [Example 94, 4-Fluoro-1-(4-(4-fluorophenyl)pyrimidin-2-yl)-N-(4-methyl-1-azabicyclo[3.2.2]nonan-4-yl)piperidine-4-carboxamide]: the IC50 in assay [1] was found to be 0.736 nM; in assay [2] it was 14.4 nM; in assay [3], 0.0964 nM; in the assay on B16 mouse melanoma cells it was 2100 nM; with C32 human melanoma cells, 46.4 nM.
In the case of `CC1(NC(=O)C2(F)CCN(c3nccc(-c4ccc(F)cc4)n3)CC2)CN2CCC1CC2` (stereo not shown) [Example 95, 4-Fluoro-1-(4-(4-fluorophenyl)pyrimidin-2-yl)-N-(3-methylquinuclidin-3-yl)piperidine-4-carboxamide], the IC50 was determined as 0.585 nM in assay [1]; 20 nM in assay [2]; 0.0836 nM in assay [3]; 4690 nM with B16 mouse melanoma cells; 31.6 nM in the assay with C32 human melanoma cells.
For `COCc1ccc(-c2ccnc(N3CCC(C)(C(=O)NC4(C)CCN5CCC4CC5)CC3)n2)cc1` (stereo not shown) [Example 96, 1-(4-(4-(Methoxymethyl)phenyl)pyrimidin-2-yl)-4-methyl-N-(4-methyl-1-azabicyclo[3.2.2]nonan-4-yl)piperidine-4-carboxamide], the IC50 in assay [1] was determined as 7 nM; in assay [2], 145 nM; in assay [3], 0.804 nM; in the assay with B16 mouse melanoma cells, 3390 nM; with C32 human melanoma cells it was 1000 nM.
`COCCOCc1ccc(-c2ccnc(N3CCC(C)(C(=O)NC4(C)CCN5CCC4CC5)CC3)n2)cc1` (stereo not shown) [Example 97, 1-(4-(4-((2-Methoxyethoxy)methyl)phenyl)pyrimidin-2-yl)-4-methyl-N-(4-methyl-1-azabicyclo[3.2.2]nonan-4-yl)piperidine-4-carboxamide]: the IC50 in assay [1] was 13.4 nM; in assay [2] it was 285 nM; in assay [3] it was 1.36 nM; in the assay with B16 mouse melanoma cells it was not below 10000 nM; in the assay on C32 human melanoma cells, 1000 nM.
`COCCOCc1ccc(-c2ccnc(N3CCC(C)(C(=O)NC4(C)CN5CCC4CC5)CC3)n2)cc1` (stereo not shown) [Example 98, 1-(4-(4-((2-Methoxyethoxy)methyl)phenyl)pyrimidin-2-yl)-4-methyl-N-(3-methylquinuclidin-3-yl)piperidine-4-carboxamide]: the IC50 in assay [1] is 76.9 nM; in assay [2], 1910 nM; in assay [3] it was 8.13 nM; in the assay with B16 mouse melanoma cells, 8190 nM; in the assay with C32 human melanoma cells it was 1000 nM.
As to `CC1(NC(=O)C2(O)CCN(c3nccc(-c4ccc(F)cc4)n3)CC2)CCN2CCC1CC2` (stereo not shown) [Example 99, 1-(4-(4-Fluorophenyl)pyrimidin-2-yl)-4-hydroxy-N-(4-methyl-1-azabicyclo[3.2.2]nonan-4-yl)piperidine-4-carboxamide], the IC50 in assay [1] was found to be 2.23 nM; in assay [2], 12 nM; in assay [3], 0.0552 nM; with B16 mouse melanoma cells, 3780 nM; in the assay with C32 human melanoma cells, 46.4 nM.
